Assay results from publication PMC8126888 (RSC Medicinal Chemistry, 2020).
pIC50: −log10 of the molar value. Read-outs that look alike come from different tables or passages of the source.

Columns and labels:
[1] = system: primary peritoneal mouse macrophages (PMM); assay: cells; conditions: Macrophage; for pIC50: read-out: PMM IC50
[2] = in vitro; conditions: human
[3] = physchem; conditions: HPLC, Ascentis Express RP Amide column
[4] = system: Leishmania infantum MHOM/MA(BE)/67/ITMAP263 intracellular amastigotes; assay: microbe, parasite or virus in culture; conditions: Macrophage, in Mus musculus
[5] = system: Trypanosoma cruzi, Tulahuen CL2, beta-galactosidase strain; assay: microbe, parasite or virus in culture; conditions: for IC50: MRC5, read-out: T. cruzi Tulahuen C4 (LacZ) IC50 (uM)
[6] = in vitro; conditions: human, microsomes, intrinsic in vitro clearance, liver microsomes
[7] = in vitro; conditions: mouse, microsomes, pH 7.4, Microsome Clint Mouse, intrinsic in vitro clearance, liver microsomes
[8] = read-out: L. Inf. pIC50, from L. infantum intracellular amastigote IC50 (converted)
[9] = read-out: L. infantum MHOM/MA(BE)/67/ITMAP263 intracellular amastigotes IC50, intracellular amastigotes
[10] = MRC5, read-out: T. cruzi Tulahuen C4 (LacZ) IC50
[11] = read-out: L. Inf. pIC50 (converted)
[12] = read-out: L. infantum MHOM/MA(BE)/67/ITMAP263 intracellular amastigotes IC50
[13] = read-out: PMM pIC50 (converted)
[14] = read-out: L. inf. pIC50, intracellular amastigotes in PMM (converted), geometric mean of a minimum of two experiments ± standard error
[15] = pH 7.4, elog D, HPLC measured log D, pH 7.4
[16] = read-out: L. infantum MHOM/MA(BE)/67/ITMAP263 intracellular amastigotes IC50 (uM), intracellular amastigotes

Structure (SMILES)	pIC50 [1]	CC50 at 3 days [2]	pIC50 [5, 10]	IC50 [4, 11]	pIC50 [4, 12]	further results
COc1ccc(OC)c(S(=O)(=O)N(Cc2ccccc2)C2CCN(C(C)=O)CC2)c1 [DNDI0003366132]	< 4.19	> 64 µM	< 4.19	–	–	chromatographic logD ([3]; pH 7.4, eLogD, experimental): 3.1; IC50 [4, 8]: > 64 µM; pIC50 [4, 9]: < 4.19
O=C(NC(Cn1ccnc1)c1ccccc1)c1ccc(-n2cnnn2)cc1 (stereo not shown) [DNDI0003363392]	< 4.26	> 55.4 µM	5.05	> 49.4 µM	< 4.31	–
COc1ccc(C)cc1S(=O)(=O)N(CC(N)=O)Cc1ccccc1 [DNDI0003363397]	< 4.26	> 55.4 µM	< 4.26	> 55.4 µM	< 4.26	–
COc1ccc(OC)c(S(=O)(=O)N2CCc3ccccc3C2)c1 [DNDI0003363398]	< 4.26	> 55.4 µM	< 4.26	> 55.4 µM	< 4.26	–
O=S(=O)(c1cc(F)ccc1F)N(Cc1ccc(F)cc1)Cc1ccc(F)cc1 [DNDI0003371158]	< 4.19	> 64 µM	< 4.19	–	–	IC50 [4, 8]: > 64 µM; pIC50 [4, 9]: < 4.19
COCCNc1ccc(S(=O)(=O)N(CCOC)Cc2ccccc2)cc1 [DNDI0003366102]	< 4.19	38.1 µM	4.46	–	–	IC50 [4, 8]: 38.9 µM; pIC50 [4, 9]: 4.41
O=S1(=O)c2cc(F)ccc2OCCN1Cc1ccccc1 [DNDI0003368292]	< 4.19	> 64 µM	4.31	–	–	IC50 [4, 8]: > 64 µM; pIC50 [4, 9]: < 4.19
COc1ccccc1S(=O)(=O)N(Cc1ccccc1)Cc1ccccc1 [Compound 10]	–	–	–	–	–	IC50 [1, 13]: > 64.6 µM; IC50 [4, 14]: 0.331 µM
COc1ccc(OC)c(S(=O)(=O)N(Cc2ccc(F)cc2)Cc2ccc(F)cc2)c1 [Compound 32]	–	–	–	–	–	IC50 [1, 13]: > 64.6 µM; chromatographic logD [3, 15]: 4.7; IC50 [4, 14]: 0.537 µM
COc1ccc(Cl)cc1S(=O)(=O)N(CC(=O)N1CCOCC1)Cc1ccccc1 [SCYX0001379806]	< 4.49	> 32 µM	< 4.49	> 32 µM	< 4.49	–
O=C(Cn1ccnc1[N+](=O)[O-])NCc1ccccc1 [Benznidazole, reference compound]	–	–	–	–	–	pIC50 ([5]; MRC5, […], reference drug, T. cruzi, 7 days): 5.30 to 5.70
COc1ccc(F)cc1S(=O)(=O)N(Cc1ccccc1)Cc1ccccc1 [Compound 18]	–	–	–	–	–	IC50 [1, 13]: > 64.6 µM; chromatographic logD [3, 15]: 4.7; IC50 [4, 14]: 1.38 µM; microsomal CLint at 0.5 μM ([6]; pH 7.4, Microsome Clint Human): 955 µL/min/mg
CCN(CC)C(=O)CN(Cc1ccccc1)S(=O)(=O)c1ccc(OC)c(OC)c1 [DNDI0003363394]	< 4.26	> 55.4 µM	< 4.26	32.4 µM	4.49	–
O=C(COc1ccc(Cl)cc1S(=O)(=O)NCc1ccccc1)N1CCOCC1 [DNDI0003363401]	< 4.26	> 55.4 µM	< 4.26	> 55.4 µM	< 4.26	–
COc1ccc(C)cc1S(=O)(=O)N(CC(=O)NCc1ccc(Cl)cc1)Cc1ccccc1 [DNDI0003363396]	< 4.26	> 55.4 µM	5.22	25.7 µM	4.59	–
COc1ccc(OC)c(S(=O)(=O)n2cc(C)nc2-c2ccccc2)c1 [DNDI0003363402]	< 4.26	> 55.4 µM	< 4.26	> 55.4 µM	< 4.26	–
COc1ccc(CN2CCOCC2)cc1S(=O)(=O)N(Cc1ccc(F)cc1)Cc1ccc(F)cc1 [Compound 24]	–	–	–	–	–	IC50 [1, 13]: > 64.6 µM; IC50 [4, 14]: 0.525 µM; microsomal CLint at 0.5 h, 0.5 µM ([6]; pH 7.4, Microsome Clint Human): 49.4 µL/min/mg; microsomal CLint at 0.5 μM [7]: 3200 µL/min/mg
CC(=O)Nc1ccc(Cl)c(C(=O)NC(Cn2ccnc2)c2ccccc2)c1 (stereo not shown) [DNDI0003363391]	< 4.26	> 55.4 µM	< 4.26	> 55.4 µM	< 4.26	–
CN(C)CCN(Cc1ccccc1)S(=O)(=O)c1ccccc1OC(F)(F)F [DNDI0003367256]	4.34	53.4 µM	4.49	–	–	IC50 [4, 8]: 8.71 µM; pIC50 [4, 9]: 5.06
COCCN(Cc1ccccc1)S(=O)(=O)c1cc(OC)ccc1OC [Compound 39]	–	–	–	–	–	IC50 [1, 13]: > 64.6 µM; chromatographic logD [3, 15]: 3.5; IC50 [4, 14]: 2.09 µM; microsomal CLint at 0.5 μM ([6]; pH 7.4, Microsome Clint,u Human, Table 2): 253 µL/min/mg

Structure (SMILES)	pIC50 [1]	CC50 at 3 days [2]	pIC50 [5, 10]	IC50 [4, 11]	pIC50 [4, 12]	further results
COc1ccc(Cl)cc1S(=O)(=O)N(Cc1ccccc1)Cc1ccccc1 [Compound 19]	–	–	–	–	–	IC50 [1, 13]: > 64.6 µM; IC50 [4, 14]: 1.38 µM; microsomal CLint at 0.5 μM ([6]; pH 7.4, Microsome Clint Human): 407 µL/min/mg; microsomal CLint at 0.5 μM [7]: 1350 µL/min/mg
O=S(=O)(c1cc(F)ccc1F)N(Cc1ccc(F)cc1)Cc1ccc(F)cc1 [Compound 12]	–	–	–	–	–	IC50 [1, 13]: > 64.6 µM; IC50 [4, 14]: > 64.6 µM
O=S1(=O)c2ccccc2OCC(Cc2ccccc2)N1Cc1ccccc1 (stereo not shown) [DNDI0003370081]	4.34	> 64 µM	< 4.19	–	–	chromatographic logD ([3]; pH 7.4, eLogD, experimental): 5; IC50 [4, 8]: 33.1 µM; pIC50 [4, 9]: 4.48
N#Cc1ccccc1S(=O)(=O)N(Cc1ccccc1)Cc1ccccc1 [Compound 13]	–	–	–	–	–	IC50 [1, 13]: > 64.6 µM; chromatographic logD [3, 15]: 4.3; IC50 [4, 14]: 11.2 µM; microsomal CLint at 0.5 h, 0.5 µM ([6]; pH 7.4, Microsome Clint Human): 699 µL/min/mg
COc1ccc(Cl)cc1S(=O)(=O)N(CC(=O)N1CCCC1)Cc1ccccc1 [DNDI0003363389]	< 4.49	> 32 µM	< 4.49	15.5 µM	4.81	–
COc1ccc(OC)c(S(=O)(=O)N2CCCC2c2ccc(F)cc2)c1 (stereo not shown) [DNDI0003363388]	< 4.49	> 32 µM	4.59	9.55 µM	5.02	–
COCC1COc2ccc(F)cc2S(=O)(=O)N1Cc1ccccc1 (stereo not shown) [DNDI0003369451]	< 4.19	> 64 µM	< 4.19	–	–	IC50 [4, 8]: > 64 µM; pIC50 [4, 9]: < 4.19
COc1ccc(C)cc1S(=O)(=O)N(CC(=O)Nc1ccccc1)Cc1ccccc1 [DNDI0003363395]	< 4.26	> 55.4 µM	4.70	> 49.4 µM	< 4.31	–
COc1ccc(C#N)cc1S(=O)(=O)N(Cc1ccccc1)Cc1ccccc1 [Compound 17]	–	–	–	–	–	IC50 [1, 13]: > 64.6 µM; chromatographic logD [3, 15]: 4.3; IC50 [4, 14]: 0.437 µM; microsomal CLint at 0.5 μM ([6]; pH 7.4, Microsome Clint Human): 304 µL/min/mg
COCCN(Cc1ccccc1)S(=O)(=O)c1cc(C(=O)N2CCOCC2)ccc1OC [DNDI0003392126]	–	> 64 µM	–	–	–	IC50 ([1]; read-out: PMM IC50 (uM)): > 64 µM; IC50 [4, 8]: 43.7 µM; IC50 [4, 16]: 44 µM; IC50 [5]: > 64 µM
CC[C@]1(O)C[C@@H]2CN(CCc3c([nH]c4ccccc34)[C@@](C(=O)OC)(c3cc4c(cc3OC)N(C)[C@H]3[C@@](O)(C(=O)OC)[C@H](OC(C)=O)[C@]5(CC)C=CCN6CC[C@]43[C@@H]65)C2)C1 [vinblastine, reference compound]	–	< 0.01 µM	–	–	–	–
COc1ccc(S(=O)(=O)N(CC(=O)NC2CC2)Cc2ccccc2)cc1C [DNDI0003363400]	< 4.26	> 55.4 µM	< 4.26	> 49.4 µM	< 4.31	–
COc1ccc(C)cc1S(=O)(=O)N(CC(=O)N1CCOCC1)Cc1ccccc1 [DNDI0003363393]	< 4.26	> 55.4 µM	< 4.26	19.1 µM	4.72	–
O=S(=O)(c1cc(F)ccc1F)N(Cc1ccccc1)CC(O)c1ccc(F)cc1 (stereo not shown) [DNDI0003371159]	< 4.19	18.7 µM	5.14	–	–	IC50 [4, 8]: 33.1 µM; pIC50 [4, 9]: 4.48
COc1ncc(C#N)cc1S(=O)(=O)N(Cc1ccc(F)cc1)Cc1ccc(F)cc1 [DNDI0003369123]	< 4.19	> 64 µM	5.08	–	–	chromatographic logD ([3]; pH 7.4, eLogD, experimental): 4.5; IC50 [4, 8]: 7.59 µM; pIC50 [4, 9]: 5.12
COc1ccc(C)cc1S(=O)(=O)N(CC(=O)O)Cc1ccccc1 [DNDI0003363399]	< 4.26	> 55.4 µM	< 4.26	> 55.4 µM	< 4.26	–
CC(=O)O[C@H]1C(=O)[C@@]2(C)[C@H]([C@H](OC(=O)c3ccccc3)[C@]3(O)C[C@H](OC(=O)[C@H](O)[C@@H](NC(=O)c4ccccc4)c4ccccc4)C(C)=C1C3(C)C)[C@]1(OC(C)=O)CO[C@@H]1C[C@@H]2O [paclitaxel, reference compound]	–	< 0.01 µM	–	–	–	–
COc1ccc(Cl)cc1S(=O)(=O)N(CC(=O)N1CCN(C)CC1)Cc1ccccc1 [DNDI0003363387]	< 4.49	> 32 µM	< 4.49	> 32 µM	< 4.49	–
COCCN(Cc1ccccc1)S(=O)(=O)c1cc(C(=O)N2CCNCC2)ccc1OC [DNDI0003392127]	–	> 64 µM	–	–	–	IC50 ([1]; read-out: PMM IC50 (uM)): > 64 µM; IC50 [4, 8]: 36.3 µM; IC50 [4, 16]: 35.9 µM; IC50 [5]: 13.4 µM
